Source: patent US20230340011A1 (Asteroid Therapeutics, priority 2022, published 2023)

Legend:
LXRβ = LXRβ (Homo sapiens (Human), UniProt P55055); assay: In vitro assay LXRβ: PathHunter NHR CHO cells, LXRβ / Steroid Receptor Co-activator Peptide enzyme fragment complementation; type: cell-based; details: PathHunter NHR CHO cells, full-length human LXRβ and SRCP, chemiluminescent signal; read-out: LXRβ PPI
Method in brief: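 Enzyme fragment complementation read-out: CHO cells stably expressing ProLink-tagged full-length human LXRβ plus nuclear enzyme acceptor–SRCP fusion, seeded and held overnight at 37° C. Medium with charcoal-dextran filtered serum; final vehicle 1%. Chemiluminescence measured after signal generation.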

SREBP-2 = SREBP-2 (Homo sapiens (Human), UniProt Q12772); assay: In vitro assay SREBP-2: PathHunter U2OS SREBP-2 Nuclear Translocation Cell Line, U18666A-stimulated; type: cell-based; details: PathHunter U2OS SREBP-2 nuclear translocation cells, U18666A 10 μM, overnight (16 hours)

Sequence of LXRβ (P55055 whole entry, the tested form may be a part): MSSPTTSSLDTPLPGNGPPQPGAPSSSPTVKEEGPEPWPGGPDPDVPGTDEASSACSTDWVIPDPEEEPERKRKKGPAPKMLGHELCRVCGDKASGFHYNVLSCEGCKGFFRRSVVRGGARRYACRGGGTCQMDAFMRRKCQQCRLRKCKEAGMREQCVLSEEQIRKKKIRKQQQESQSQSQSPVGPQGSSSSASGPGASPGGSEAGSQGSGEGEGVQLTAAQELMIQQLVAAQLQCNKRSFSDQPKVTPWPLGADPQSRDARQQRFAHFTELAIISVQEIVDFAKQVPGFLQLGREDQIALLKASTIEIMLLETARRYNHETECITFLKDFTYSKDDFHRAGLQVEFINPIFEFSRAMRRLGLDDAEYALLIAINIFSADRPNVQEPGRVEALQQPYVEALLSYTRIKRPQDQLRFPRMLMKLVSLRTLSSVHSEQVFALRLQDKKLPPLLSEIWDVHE

| SMILES | EC50 (LXRβ) [nM] | IC50 (SREBP-2) [nM] |
| --- | --- | --- |
| C[C@H](CCC(=O)N1CCC(CO)CC1)[C@H]1CC[C@H]2[C@@H]3CC=C4C[C@@H](O)CC[C@]4(C)[C@H]3CC[C@]12C [Example 376, (4R)-4-[(1R,3aS,3bS,7S,9aR,9bS,11aR)-7-hydroxy-9a,11a-dimethyl-1H,2H,3H,3aH,3bH,4H,6H,7H,8H,9H,9aH,9bH,10H,11H,11aH-cyclopenta[a]phenanthren-1-yl]-1-[4-(hydroxymethyl)piperidin-1-yl]pentan-1-one] | 250 to 1000 | < 250 |
| COC(=O)N1CCN(C(=O)CC[C@@H](C)[C@H]2CC[C@H]3[C@@H]4CC=C5C[C@@H](O)CC[C@]5(C)[C@H]4CC[C@]23C)[C@@H](C)C1 [Example 579, Methyl(S)-4-((R)-4-((3S,8S,9S,10R,13R,14S,17R)-3-hydroxy-10,13-dimethyl-2,3,4,7,8,9,10,11,12,13,14,15,16,17-tetradecahydro-1H-cyclopenta[a]phenanthren-17-yl)pentanoyl)-3-methylpiperazine-1-carboxylate] | > 10000 | < 250 |
| C[C@H](CCC(=O)N1CCC(S(=O)(=O)N(C)C)CC1)[C@H]1CC[C@H]2[C@@H]3CC=C4C[C@@H](O)CC[C@]4(C)[C@H]3CC[C@]12C [Example 413, 1-((R)-4-((3S,8S,9S,10R,13R,14S,17R)-3-hydroxy-10,13-dimethyl-2,3,4,7,8,9,10,11,12,13,14,15,16,17-tetradecahydro-1H-cyclopenta[a]phenanthren-17-yl)pentanoyl)-N,N-dimethylpiperidine-4-sulfonamide] | > 10000 | 250 to 1000 |
| CC(=N)N1CCN(C(=O)CC[C@@H](C)[C@H]2CC[C@H]3[C@@H]4CC=C5C[C@@H](O)CC[C@]5(C)[C@H]4CC[C@]23C)CC1 [Example 245, (R)-4-((3S,8S,9S,10R,13R,14S,17R)-3-hydroxy-10,13-dimethyl-2,3,4,7,8,9,10,11,12,13,14,15,16,17-tetradecahydro-1H-cyclopenta[a]phenanthren-17-yl)-1-(4-(1-iminoethyl)piperazin-1-yl)pentan-1-one] | > 10000 | 250 to 1000 |
| C[C@H](CCc1ncccc1Cl)[C@H]1CC[C@H]2[C@@H]3CC=C4C[C@@H](O)CC[C@]4(C)[C@H]3CC[C@]12C [Example 184, bis((1R,3aS,3bS,7S,9aR,9bS,11aR)-1-[(2R)-4-(3-chloropyridin-2-yl)butan-2-yl]-9a,11a-dimethyl-1H,2H,3H,3aH,3bH,4H,6H,7H,8H,9H,9aH,9bH,10H,11H,11aH-cyclopenta[a]phenanthren-7-ol)] | 1000 to 10000 | < 250 |
| C[C@H](CCc1cccnc1)[C@H]1CC[C@H]2[C@@H]3CC=C4C[C@@H](O)CC[C@]4(C)[C@H]3CC[C@]12C [Example 159, (3S,8S,9S,10R,13R,14S,17R)-10,13-dimethyl-17-((R)-4-(pyridin-3-yl)butan-2-yl)-2,3,4,7,8,9,10,11,12,13,14,15,16,17-tetradecahydro-1H-cyclopenta[a]phenanthren-3-ol] | > 10000 | < 250 |
| C[C@H](CCC(=O)N1CCN(C(=O)c2nnn(C)n2)CC1)[C@H]1CC[C@H]2[C@@H]3CC=C4C[C@@H](O)CC[C@]4(C)[C@H]3CC[C@]12C [Example 342, (R)-4-((3S,8S,9S,10R,13R,14S,17R)-3-hydroxy-10,13-dimethyl-2,3,4,7,8,9,10,11,12,13,14,15,16,17-tetradecahydro-1H-cyclopenta[a]phenanthren-17-yl)-1-(4-(2-methyl-2H-tetrazole-5-carbonyl)piperazin-1-yl)pentan-1-one] | > 10000 | < 250 |
| C[C@H](Oc1ccncc1)[C@H]1CC[C@H]2[C@@H]3CC=C4C[C@@H](O)CC[C@]4(C)[C@H]3CC[C@]12C [Example 379, (1S,3aS,3bS,7S,9aR,9bS,11aS)-9a,11a-dimethyl-1-[(1S)-1-(pyridin-4-yloxy)ethyl]-1H,2H,3H,3aH,3bH,4H,6H,7H,8H,9H,9aH,9bH,10H,11H,11aH-cyclopenta[a]phenanthren-7-ol] | > 10000 | 250 to 1000 |
| COC(=O)N1CCN(C(=O)C[C@@H](C)[C@H]2CC[C@H]3[C@@H]4CC=C5C[C@@H](O)CC[C@]5(C)[C@H]4CC[C@]23C)CC1 [Example 593, Methyl 4-[(3R)-3-[(1R,3aS,3bS,7S,9aR,9bS,11aR)-7-hydroxy-9a,11a-dimethyl-1H,2H,3H,3aH,3bH,4H,6H,7H,8H,9H,9aH,9bH,10H,11H,11aH-cyclopenta[a]phenanthren-1-yl]butanoyl]piperazine-1-carboxylate] | > 10000 | 1000 to 10000 |
| C[C@H](CCC(=O)N1CCN(C(=O)c2ccccn2)CC1)[C@H]1CC[C@H]2[C@@H]3CC=C4C[C@@H](O)CC[C@]4(C)[C@H]3CC[C@]12C [Example 335, (4R)-4-[(1R,3aS,3bS,7S,9aR,9bS,11aR)-7-hydroxy-9a,11a-dimethyl-1H,2H,3H,3aH,3bH,4H,6H,7H,8H,9H,9aH,9bH,10H,11H,11aH-cyclopenta[a]phenanthren-1-yl]-1-[4-(pyridine-2-carbonyl)piperazin-1-yl]pentan-1-one] | > 10000 | < 250 |
| C[C@H](CCC(=O)N1CC2(CC(O)C2)C1)[C@H]1CC[C@H]2[C@@H]3CC=C4C[C@@H](O)CC[C@]4(C)[C@H]3CC[C@]12C [Example 100, (R)-4-((3S,8S,9S,10R,13R,14S,17R)-3-hydroxy-10,13-dimethyl-2,3,4,7,8,9,10,11,12,13,14,15,16,17-tetradecahydro-1H-cyclopenta[a]phenanthren-17-yl)-1-(6-hydroxy-2-azaspiro[3.3]heptan-2-yl)pentan-1-one] | > 10000 | < 250 |
| C[C@H](CCC(=O)N1CCS(=O)(=O)C1)[C@H]1CC[C@H]2[C@@H]3CC=C4C[C@@H](O)CC[C@]4(C)[C@H]3CC[C@]12C [Example 357, (R)-1-(1,1-dioxidothiazolidin-3-yl)-4-((3S,8S,9S,10R,13R,14S,17R)-3-hydroxy-10,13-dimethyl-2,3,4,7,8,9,10,11,12,13,14,15,16,17-tetradecahydro-1H-cyclopenta[a]phenanthren-17-yl)pentan-1-one] | > 10000 | < 250 |
| Cc1cnc(CC[C@@H](C)[C@H]2CC[C@H]3[C@@H]4CC=C5C[C@@H](O)CC[C@]5(C)[C@H]4CC[C@]23C)nc1 [Example 192, (3S,8S,9S,10R,13R,14S,17R)-10,13-dimethyl-17-((R)-4-(5-methylpyrimidin-2-yl)butan-2-yl)-2,3,4,7,8,9,10,11,12,13,14,15,16,17-tetradecahydro-1H-cyclopenta[a]phenanthren-3-ol] | > 10000 | < 250 |
| C[C@H](CCc1cncs1)[C@H]1CC[C@H]2[C@@H]3CC=C4C[C@@H](O)CC[C@]4(C)[C@H]3CC[C@]12C [Example 173, (3S,8S,9S,10R,13R,14S,17R)-10,13-dimethyl-17-((R)-4-(thiazol-5-yl)butan-2-yl)-2,3,4,7,8,9,10,11,12,13,14,15,16,17-tetradecahydro-1H-cyclopenta[a]phenanthren-3-ol] | > 10000 | 250 to 1000 |
